Experimental data taken from ChEMBL document CHEMBL1127130, “Peptidomimetic inhibitors of renin incorporating topographically modified isosteres spanning the P1( P3)-P1' sites” (Bioorg Med Chem Lett, 1993).

Molecular target: T1, Renin (Homo sapiens) (UniProt P00797)
T1 sequence (whole entry): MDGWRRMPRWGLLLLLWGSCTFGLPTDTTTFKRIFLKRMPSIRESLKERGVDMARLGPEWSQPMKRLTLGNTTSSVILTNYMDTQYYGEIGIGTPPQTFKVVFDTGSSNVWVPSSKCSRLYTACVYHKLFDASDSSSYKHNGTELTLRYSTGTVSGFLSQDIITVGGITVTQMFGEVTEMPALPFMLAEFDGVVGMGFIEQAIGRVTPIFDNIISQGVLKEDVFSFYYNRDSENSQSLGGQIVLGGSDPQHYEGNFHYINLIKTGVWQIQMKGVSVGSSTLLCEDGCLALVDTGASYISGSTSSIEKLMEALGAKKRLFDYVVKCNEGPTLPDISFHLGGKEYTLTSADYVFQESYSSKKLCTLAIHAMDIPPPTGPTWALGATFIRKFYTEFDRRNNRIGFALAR
Test: The compound was evaluated for inhibitory activity against monkey plasma renin at concentration of […]
Format: cell-free
Conditions: Cercopithecidae, target entry is the homologue from another species

inhibition: 29%
SMILES: C=CC[C@H](NC(=O)CNS(=O)(=O)N1CCOCC1)C(=O)N[C@@H](CC1CCC(CCC(C)C)CC1)[C@@H](O)[C@@H](O)CC(C)C (stereo partly specified)
